In patent US20120197004A1, “NOVEL ANTI-MICROBIAL PEPTIDOMIMETIC COMPOUNDS AND METHODS TO CALCULATE ANTI-MICROBIAL ACTIVITY” (priority 2006, published 2012):
Converted amounts (≈) assume the structure as drawn. Read-outs that look alike come from different tables or passages of the source. Where a SMILES comes first, the peptide text is derived from it. [ ]: non-standard residue; d: D form. ξ: configuration not given here. Oic = O=C(O)[C@@H]1C[C@@H]2CCCC[C@@H]2N1; Tic = O=C(O)[C@@H]1Cc2ccccc2CN1; ξTic = O=C(O)C1Cc2ccccc2CN1; ξOic = O=C(O)C1CC2CCCCC2N1; GABA = NCCCC(=O)O

Legend:
[1] = test system: Salmonella typhimurium (ATCC 13311); conditions: for MIC Salmonella typhimurium: ATCC 13311
[2] = in vitro; conditions: mouse, microsomes, pH 7.4
[3] = test system: Mycobacterium ranae (ATCC 110)
[4] = test system: red blood cells; conditions: 100 μM
[5] = test system: Staphylococcus aureus Methicillin/Gentamicin/Tetracycline Resistant (ATCC 33592); conditions: for Minimum Inhibitory Concentration Staphylococcus aureus ME/GM/TC resistant: in vitro MIC, tested at 100, 30, 10, 3, 1, 0.3 and 0.1 μM in 1% DMSO; for p(MIC) Staphylococcus aureus ME/GM/TC resistant: -log(MIC); for Actual Bioactivity: p(MIC) used in Staphylococcus aureus QSAR model
[6] = test system: red blood cells; experiment: Hemolytic studies; conditions: for % hemolysis / Hemolytic activity: concentration not given
[7] = test system: Bacillus subtillis (ATCC 43223); conditions: for MIC Bacillus Subtillis: ATCC 43223
[8] = in vitro; conditions: monkey, microsomes, pH 7.4
[9] = in vitro; conditions: dog, microsomes, pH 7.4
[10] = in vitro; conditions: rat, microsomes, pH 7.4
[11] = test system: Plasmodium falciparum W2 (CDC Indochina III chloroquine, quinine, pyrimethamine and sulfadoxine-resistant)
[12] = test system: Plasmodium falciparum D6 (CDC Sierra Leone, mefloquine resistant)
[13] = Metabolic stability, rat liver microsomes
[14] = Metabolic stability, dog liver microsomes
[15] = Metabolic stability, monkey liver microsomes
[16] = Metabolic stability, mouse liver microsomes
[17] = Metabolic stability, human liver microsomes; conditions: for % remaining at time T, Human Liver: 0.5 mg/mL microsomes
[18] = Minimal Inhibitory Concentration, tested at 100-0.1 in 1% DMSO
[19] = liver microsomes, 1 μM, T = 60 min

CC(=O)NCC(=O)N[C@@H](Cc1ccccc1)C(=O)N1Cc2ccccc2CC1C(=O)N1C(C(=O)NCC(=O)N[C@@H](CCCCN)C(=O)N2Cc3ccccc3CC2C(=O)N2C(C(=O)NCC(=O)N[C@@H](Cc3ccccc3)C(=O)N3Cc4ccccc4CC3C(=O)N3C(C(=O)NCC(=O)N[C@@H](CCCCN)C(=O)N4Cc5ccccc5CC4C(=O)N[C@@H](CCCCN)C(=O)N[C@@H](CCCCN)C(=O)N[C@@H](CCCCN)C(=O)N[C@@H](CCCCN)C(N)=O)CC4CCCCC43)CC3CCCCC32)CC2CCCCC21 (stereo partly drawn) [FKAB-1G, Ac-GF-Tic-Oic-GK-Tic-Oic-GF-Tic-Oic-GK-Tic-KKKK-CONH2] (Ac-GF[ξTic][ξOic]GK[ξTic][ξOic]GF[ξTic][ξOic]GK[ξTic]KKKK-NH2)
MIC Salmonella typhimurium [1]: 0.01 mM (≈ 0.0244 mg/mL) | remaining at 0.25 h, 1 μM [2]: 80% | remaining at 0.5 h, 1 μM [2]: 10% | remaining at 1 h, 1 μM [2]: 12% | MIC Mycobacterium ranae ([3]; ATCC 110): 0.01 mM (≈ 0.0244 mg/mL) | % hemolysis 100/25 μM (first value) [4]: 14% | MIC Staphylococcus aureus ME/GM/TC resistant [5, 18]: 0.003 mM (≈ 0.00732 mg/mL) | Minimum Inhibitory Concentration Staphylococcus aureus ME/GM/TC resistant [5]: 3 µM | % hemolysis / Hemolytic activity [6]: 14% | % hemolysis / Hemolytic activity ([6]; listed as 25): 14% | MIC Bacillus Subtillis [7]: 0.001 mM (≈ 0.00244 mg/mL) | remaining at 0.25 h, 1 μM [8]: 55% | remaining at 0.5 h, 1 μM [8]: 73% | remaining at 1 h, 1 μM [8]: 91% | remaining at 0.5 h, 1 μM [9]: 50% | remaining at 1 h, 1 μM [9]: 63% | remaining at 0.25 h, 1 μM [10]: 71% | remaining at 0.5 h, 1 μM [10]: 79% | remaining at 1 h, 1 μM [10]: 90%

CC(C)C[C@H](NC(=O)CNC(=O)[C@H](CCCCN)NC(=O)CN)C(=O)N1Cc2ccccc2C[C@H]1C(=O)N1[C@H](C(=O)N[C@@H](Cc2ccccc2)C(=O)N[C@@H](CCCCN)C(=O)N2Cc3ccccc3C[C@H]2C(=O)N2[C@H](C(=O)N[C@@H](CCCCN)C(=O)N[C@@H](Cc3ccccc3)C(=O)N3Cc4ccccc4C[C@H]3C(=O)N3[C@H](C(=O)N[C@@H](Cc4ccccc4)C(=O)N[C@@H](CCCCN)C(=O)N4Cc5ccccc5C[C@H]4C(=O)N4[C@H](C(=O)N[C@@H](CCCCN)C(=O)N[C@@H](Cc5ccccc5)C(=O)N5Cc6ccccc6C[C@H]5C(=O)N5[C@H](C(=O)N[C@@H](Cc6ccccc6)C(=O)N[C@@H](CCCCN)C(=O)N6Cc7ccccc7C[C@H]6C(=O)N6[C@H](C(=O)N[C@@H](Cc7ccccc7)C(=O)N[C@@H](CCCCN)C(=O)N[C@@H](CCCNC(=N)N)C(N)=O)C[C@@H]7CCCC[C@@H]76)C[C@@H]6CCCC[C@@H]65)C[C@@H]5CCCC[C@@H]54)C[C@@H]4CCCC[C@@H]43)C[C@@H]3CCCC[C@@H]32)C[C@@H]2CCCC[C@@H]21 [WRFK-5, NH2-GKGL-Tic-Oic-FK-Tic-Oic-KF-Tic-Oic-FK-Tic-Oic-KF-Tic-Oic-FK-Tic-Oic-FKR-CONH2] (H-GKGL[Tic][Oic]FK[Tic][Oic]KF[Tic][Oic]FK[Tic][Oic]KF[Tic][Oic]FK[Tic][Oic]FKR-NH2)
p(MIC) Salmonella typhimurium ([1]; -log(MIC)): 4.00 | MIC Salmonella typhimurium [1]: 0.1 mM (≈ 0.404 mg/mL) | IC50 * W2 [11]: 4.2 µg/mL (≈ 1.04 µM) | Actual Bioactivity [3]: 0.000 | MIC Mycobacterium ranae [3]: 1000 mM (≈ 4040 mg/mL) | Minimum Inhibitory Concentration Mycobacterium ranae [3]: not active | % hemolysis 100/25 μM (first value) [4]: 100% | p(MIC) Staphylococcus aureus ME/GM/TC resistant [5]: 4.52 | MIC Staphylococcus aureus ME/GM/TC resistant [5, 18]: 0.03 mM (≈ 0.121 mg/mL) | Minimum Inhibitory Concentration Staphylococcus aureus ME/GM/TC resistant [5]: 30 µM | Actual Bioactivity [5]: 4.520 | p(MIC) Bacillus Subtillis ([7]; -log(MIC)): 5.52 | MIC Bacillus Subtillis [7]: 0.003 mM (≈ 0.0121 mg/mL) | IC50 * D6 [12]: 3.9 µg/mL (≈ 0.965 µM)

CC(=O)NCCCC(=O)N[C@@H](Cc1ccccc1)C(=O)N1Cc2ccccc2CC1C(=O)N1C(C(=O)NCCCC(=O)N[C@@H](CCCCN)C(=O)N2Cc3ccccc3CC2C(=O)N2C(C(=O)NCCCC(=O)N[C@@H](Cc3ccccc3)C(=O)N3Cc4ccccc4CC3C(=O)N3C(C(=O)NCCCC(=O)N[C@@H](CCCCN)C(=O)N4Cc5ccccc5CC4C(=O)N[C@@H](CCCCN)C(=O)N[C@@H](CCCCN)C(=O)N[C@@H](CCCCN)C(=O)N[C@@H](CCCCN)C(N)=O)CC4CCCCC43)CC3CCCCC32)CC2CCCCC21 (stereo partly drawn) [FKAB-1Gd, Ac-Gaba-F-Tic-Oic-Gaba-K-Tic-Oic-Gaba-F-Tic-Oic-Gaba-K-Tic-KKKK-CONH2] (Ac-[GABA]F[ξTic][ξOic][GABA]K[ξTic][ξOic][GABA]F[ξTic][ξOic][GABA]K[ξTic]KKKK-NH2)
MIC Salmonella typhimurium [1]: 0.01 mM (≈ 0.0255 mg/mL) | MIC Mycobacterium ranae ([3]; ATCC 110): 0.01 mM (≈ 0.0255 mg/mL) | Minimum Inhibitory Concentration Mycobacterium ranae ([3]; ATCC 110): 10 µM | MIC Staphylococcus aureus ME/GM/TC resistant ([5]; ATCC 33592): 0.1 mM (≈ 0.255 mg/mL) | % hemolysis 100/25 μM (first value) ([6]; 100 μM): 10.8%/ | MIC Bacillus Subtillis [7]: 0.001 mM (≈ 0.00255 mg/mL) | metabolic stability T = 60 min rat [13, 19]: high | remaining at 0.25 h, 1 μM ([13]; rat, microsomes, pH 7.4): 67% | remaining at 0.5 h, 1 μM ([13]; rat, microsomes, pH 7.4): 78% | remaining at 1 h, 1 μM ([13]; rat, microsomes, pH 7.4): 83% | % remaining, Dog Liver T = 15 ([14]; T = 15 min, 1 μM, 0.5 mg/mL microsomes): 35% | remaining at 0.5 h, 1 μM ([14]; dog, microsomes, pH 7.4): 34% | remaining at 1 h, 1 μM ([14]; dog, microsomes, pH 7.4): 55% | metabolic stability T = 60 min dog [14, 19]: High | metabolic stability T = 60 min monkey [15, 19]: high | remaining at 0.25 h, 1 μM ([15]; monkey, microsomes, pH 7.4): 16% | remaining at 0.5 h, 1 μM ([15]; monkey, microsomes, pH 7.4): 25% | remaining at 1 h, 1 μM ([15]; monkey, microsomes, pH 7.4): 76% | metabolic stability T = 60 min mouse [16, 19]: very low | remaining at 0.25 h, 1 μM ([16]; mouse, microsomes, pH 7.4): 90% | remaining at 0.5 h, 1 μM ([16]; mouse, microsomes, pH 7.4): 7% | remaining at 1 h, 1 μM ([16]; mouse, microsomes, pH 7.4): 9% | remaining at 0.25 h, 1 μM ([17]; human, microsomes, pH 7.4): 106% | metabolic stability T = 60 min human [17, 19]: high | % remaining at time T, Human Liver ([17]; second human column (T = 30 min, head not given), 1 μM): 94% | % remaining at time T, Human Liver ([17]; third human column (T = 60 min, head not given), 1 μM): 114%

CC(C)C[C@H](NC(=O)CNC(=O)[C@@H]1C[C@@H]2CCCC[C@@H]2N1C(=O)[C@@H]1Cc2ccccc2CN1C(=O)[C@H](CC(C)C)NC(=O)CNC(=O)[C@@H]1C[C@@H]2CCCC[C@@H]2N1C(=O)[C@@H]1Cc2ccccc2CN1C(=O)[C@H](CCCCN)NC(=O)CNC(=O)[C@@H]1C[C@@H]2CCCC[C@@H]2N1C(=O)[C@@H]1Cc2ccccc2CN1C(=O)[C@H](CC(C)C)NC(=O)CNC(=O)[C@@H]1C[C@@H]2CCCC[C@@H]2N1C(=O)[C@@H]1Cc2ccccc2CN1C(=O)[C@H](CCCCN)NC(=O)CNC(=O)[C@@H]1C[C@@H]2CCCC[C@@H]2N1C(=O)[C@@H]1Cc2ccccc2CN1C(=O)[C@H](CC(C)C)NC(=O)CNC(=O)[C@@H]1C[C@@H]2CCCC[C@@H]2N1C(=O)[C@@H]1Cc2ccccc2CN1C(=O)[C@H](CC(C)C)NC(=O)CNC(=O)[C@H](CCCCN)NC(=O)CN)C(=O)N[C@@H](CCCNC(=N)N)C(N)=O [WRFK-3, NH2-GKGL-Tic-Oic-GL-Tic-Oic-GK-Tic-Oic-GL-Tic-Oic-GK-Tic-Oic-GL-Tic-Oic-GLR-CONH2] (H-GKGL[Tic][Oic]GL[Tic][Oic]GK[Tic][Oic]GL[Tic][Oic]GK[Tic][Oic]GL[Tic][Oic]GLR-NH2)
Minimum Inhibitory Concentration Salmonella typhimurium ([1]; in vitro MIC, tested at 100, 30, 10, 3, 1, 0.3 and 0.1 μM in 1% DMSO): not active | IC50 * W2 [11]: 7.2 µg/mL (≈ 2.09 µM) | % hemolysis 100/25 μM (first value) [4]: 100% | p(MIC) Staphylococcus aureus ME/GM/TC resistant [5]: 4.00 | MIC Staphylococcus aureus ME/GM/TC resistant [5, 18]: 0.1 mM (≈ 0.344 mg/mL) | Minimum Inhibitory Concentration Staphylococcus aureus ME/GM/TC resistant [5]: 100 µM | Actual Bioactivity [5]: 4.000 | IC50 * D6 [12]: 5.2 µg/mL (≈ 1.51 µM)

CC(C)C[C@H](NC(=O)CNC(=O)[C@H](CCCCN)NC(=O)CN)C(=O)N1Cc2ccccc2CC1C(=O)N1C(C(=O)NCC(=O)N[C@@H](CCCCN)C(=O)N2Cc3ccccc3CC2C(=O)N2C(C(=O)NCC(=O)N[C@@H](Cc3ccccc3)C(=O)N3Cc4ccccc4CC3C(=O)N3C(C(=O)NCC(=O)N[C@@H](CCCCN)C(=O)N4Cc5ccccc5CC4C(=O)N4C(C(=O)NCC(=O)N[C@@H](Cc5ccccc5)C(=O)N5Cc6ccccc6CC5C(=O)N5C(C(=O)NCC(=O)N[C@@H](CCCCN)C(=O)N6Cc7ccccc7CC6C(=O)N6C(C(=O)NCC(=O)N[C@@H](CCCCN)C(=O)N[C@@H](CCCNC(=N)N)C(N)=O)CC7CCCCC76)CC6CCCCC65)CC5CCCCC54)CC4CCCCC43)CC3CCCCC32)CC2CCCCC21 (stereo partly drawn) [WRFK-1, NH2-GKGL-Tic-Oic-GK-Tic-Oic-GF-Tic-Oic-GK-Tic-Oic-GF-Tic-Oic-GK-Tic-Oic-GKR-CONH2] (H-GKGL[ξTic][ξOic]GK[ξTic][ξOic]GF[ξTic][ξOic]GK[ξTic][ξOic]GF[ξTic][ξOic]GK[ξTic][ξOic]GKR-NH2)
IC50 * W2 [11]: 5.7 µg/mL (≈ 1.61 µM) | MIC Staphylococcus aureus ME/GM/TC resistant [5, 18]: 0.01 mM (≈ 0.0354 mg/mL) | Minimum Inhibitory Concentration Staphylococcus aureus ME/GM/TC resistant [5]: 10 µM | IC50 * D6 [12]: 7.3 µg/mL (≈ 2.06 µM)
